Source: US9296758B2, “2-quinolinyl-acetic acid derivatives as HIV antiviral compounds” (GILEAD SCIENCES, INC., priority 2010, dated 2016)

System: HIV-IIIb
Assay: Test A: Antiviral Assays in MT4 Cells
Format: cell-based
Conditions: Human immunodeficiency virus 1, IIIB, MT4, 120 h, MT-4 cells infected with HIV-IIIb (0.004 m.o.i.), 5 days of incubation, CellTiter-Glo chemiluminescence readout
Method in brief: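 MT-4 cells pre-infected with HIV-IIIb (0.004 m.o.i.) or mock-infected, 2000 cells per well, were exposed to 10 three-fold serial compound dilutions in quadruplicate in RPMI 1640 with 10% FBS. After 5 days at 37° C, cell viability read by CellTiter-Glo chemiluminescence.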

Structure (SMILES) | EC50
Cc1cc2nc(-c3cn[nH]c3)ccc2c(-c2ccc(Cl)cc2)c1[C@H](OC(C)(C)C)C(=O)O [Compound 77, (S)-2-tert-butoxy-2-(5-(4-chlorophenyl)-7-methyl-2-(1H-pyrazol-4-yl)quinolin-6-yl)acetic acid] | 135 nM
Cc1cc2nc(-c3ccccn3)ccc2c(-c2ccc(Cl)cc2)c1[C@H](OC(C)(C)C)C(=O)O [Compound 79, (S)-2-tert-butoxy-2-(5-(4-chlorophenyl)-7-methyl-2-(pyridin-2-yl)quinolin-6-yl)acetic acid] | 86 nM
Cc1cc2nc(-c3cncn3C)ccc2c(-c2ccc(Cl)cc2)c1[C@H](OC(C)(C)C)C(=O)O [Compound 82, (S)-2-tert-Butoxy-2-(5-(4-chlorophenyl)-7-methyl-2-(1-methyl-1H-imidazol-5-yl)quinolin-6-yl)acetic acid] | 171 nM
Cc1cc2nc(-c3cn(C)cn3)ccc2c(-c2ccc(Cl)cc2)c1[C@H](OC(C)(C)C)C(=O)O [Compound 86, (S)-2-tert-butoxy-2-(5-(4-chlorophenyl)-7-methyl-2-(1-methyl-1H-imidazol-4-yl)quinolin-6-yl)acetic acid] | 78 nM
Cc1cc2nc(-c3cncnc3)ccc2c(-c2ccc(Cl)cc2)c1[C@H](OC(C)(C)C)C(=O)O [Compound 87, (S)-2-tert-Butoxy-2-(5-(4-chlorophenyl)-7-methyl-2-(pyrimidin-5-yl)quinolin-6-yl)acetic acid] | 175 nM
Cc1cc2nc(-c3ccnnc3)ccc2c(-c2ccc3c4c(ccnc24)CCO3)c1[C@H](OC(C)(C)C)C(=O)O [Compound 88, (S)-2-tert-butoxy-2-((R)-5-(2,3-dihydropyrano[4,3,2-de]quinolin-7-yl)-7-methyl-2-(pyridazin-4-yl)quinolin-6-yl)acetic acid] | 514 nM
Cc1cc2nc(C(C)C)ccc2c(-c2ccc(Cl)cc2)c1[C@H](OC(C)(C)C)C(=O)O [Compound 90, (S)-2-tert-butoxy-2-(5-(4-chlorophenyl)-2-isopropyl-7-methylquinolin-6-yl)acetic acid] | 67 nM
Cc1cc2nc(-n3ccnc3)ccc2c(-c2ccc(Cl)cc2)c1[C@H](OC(C)(C)C)C(=O)O [Compound 91, (S)-2-tert-Butoxy-2-(5-(4-chlorophenyl)-2-(1H-imidazol-1-yl)-7-methylquinolin-6-yl)acetic acid] | 73 nM
Cc1cc2nc(N(C)CC(C)C)ccc2c(-c2ccc3c4c(ccnc24)CCO3)c1[C@H](OC(C)(C)C)C(=O)O [Compound 92, (S)-2-tert-butoxy-2-((R)-5-(2,3-dihydropyrano[4,3,2-de]quinolin-7-yl)-2-(isobutyl(methyl)amino)-7-methylquinolin-6-yl)acetic acid] | 300 nM
CCN(C)c1ccc2c(-c3ccc4c5c(ccnc35)CCO4)c([C@H](OC(C)(C)C)C(=O)O)c(C)cc2n1 [Compound 93, (S)-2-tert-Butoxy-2-((R)-5-(2,3-dihydropyrano[4,3,2-de]quinolin-7-yl)-2-(ethyl(methyl)amino)-7-methylquinolin-6-yl)acetic acid] | 94 nM
Cc1cc2nc(N3CCCC3)ccc2c(-c2ccc3c4c(ccnc24)CCO3)c1[C@H](OC(C)(C)C)C(=O)O [Compound 94, (S)-2-tert-butoxy-2-((R)-5-(2,3-dihydropyrano[4,3,2-de]quinolin-7-yl)-7-methyl-2-(pyrrolidin-1-yl)quinolin-6-yl)acetic acid] | 149 nM
Cc1cc2nc(N(C)C)ccc2c(-c2ccc3c4c(ccnc24)CCO3)c1[C@H](OC(C)(C)C)C(=O)O [Compound 96, (S)-2-tert-butoxy-2-((R)-5-(2,3-dihydropyrano[4,3,2-de]quinolin-7-yl)-2-(dimethylamino)-7-methylquinolin-6-yl)acetic acid] | 37 nM
Cc1cc2[nH]c(=O)ccc2c(-c2ccc3c4c(ccnc24)CCO3)c1[C@H](OC(C)(C)C)C(=O)O [Compound 97, (S)-2-tert-Butoxy-2-((R)-5-(2,3-dihydropyrano[4,3,2-de]quinolin-7-yl)-7-methyl-2-oxo-1,2-dihydroquinolin-6-yl)acetic acid] | 898 nM
Cc1cc2nc(-n3ccnc3)ccc2c(-c2ccc3c4c(ccnc24)CCO3)c1[C@H](OC(C)(C)C)C(=O)O [Compound 98, (S)-2-tert-butoxy-2-((R)-5-(2,3-dihydropyrano[4,3,2-de]quinolin-7-yl)-2-(1H-imidazol-1-yl)-7-methylquinolin-6-yl)acetic acid] | 251 nM
Cc1cc2nc(C(F)F)ccc2c(-c2ccc(Cl)cc2)c1[C@H](OC(C)(C)C)C(=O)O [Compound 100, (S)-2-tert-butoxy-2-(5-(4-chlorophenyl)-2-(difluoromethyl)-7-methylquinolin-6-yl)acetic acid] | 75 nM
Cc1cc2c(ccc(=O)n2CCNC(=O)OCC2c3ccccc3-c3ccccc32)c(-c2ccc(Cl)cc2)c1[C@H](OC(C)(C)C)C(=O)O [Compound 101, (S)-2-(1-(2-(((9H-Fluoren-9-yl)methoxy)carbonylamino)ethyl)-5-(4-chlorophenyl)-7-methyl-2-oxo-1,2-dihydroquinolin-6-yl)-2-tert-butoxyacetic acid] | 367 nM
Cc1ccc2c(-c3ccc4c5c3CCCN5CCO4)c([C@H](OC(C)(C)C)C(=O)O)c(C)cc2n1 [Compound 103, (2S)-2-tert-butoxy-2-(2,7-dimethyl-5-(3,5,6,7-tetrahydro-2H-[1,4]oxazino[2,3,4-ij]quinolin-8-yl)quinolin-6-yl)acetic acid] | 25 nM
CC(=O)c1ccc2c(-c3ccc4c5c(ccnc35)CCO4)c([C@H](OC(C)(C)C)C(=O)O)c(C)cc2n1 [Compound 111, (S)-2-((R)-2-Acetyl-5-(2,3-dihydropyrano[4,3,2-de]quinolin-7-yl)-7-methylquinolin-6-yl)-2-tert-butoxyacetic acid] | 352 nM

Same assay, conditions: MT-4 cells infected with HIV-IIIb (0.004 m.o.i.), 5 days of incubation, CellTiter-Glo chemiluminescence readout

Structure (SMILES) | EC50
Cc1ccc2c(-c3ccc4c(c3Cl)NCCO4)c([C@H](OC(C)(C)C)C(=O)O)c(C)cc2n1 [Compound 89, (S)-2-tert-Butoxy-2-((R)-5-(5-chloro-3,4-dihydro-2H-benzo[b][1,4]oxazin-6-yl)-2,7-dimethylquinolin-6-yl)acetic acid] | 42 nM
Cc1cc2nc(C(F)F)ccc2c(-c2ccc3c4c(ccnc24)CCO3)c1[C@H](OC(C)(C)C)C(=O)O [Compound 99, (S)-2-tert-butoxy-2-((R)-2-(difluoromethyl)-5-(2,3-dihydropyrano[4,3,2-de]quinolin-7-yl)-7-methylquinolin-6-yl)acetic acid] | 12 nM
Cc1ccc2c(-c3ccc(Cl)cc3Cl)c([C@H](OC(C)(C)C)C(=O)O)c(C)cc2n1 [Compound 104] | 720 nM
Cc1cccnc1-c1ccc2c(-c3ccc4c5c(ccnc35)CCO4)c([C@H](OC(C)(C)C)C(=O)O)c(C)cc2n1 [Compound 106, (S)-2-tert-Butoxy-2-((R)-5-(2,3-dihydropyrano[4,3,2-de]quinolin-7-yl)-7-methyl-2-(3-methylpyridin-2-yl)quinolin-6-yl)acetic acid] | 25 nM
